Assay results: patent US20150316556A1, “SSEA4 AND ST3GAL2 AS CHEMOTHERAPEUTIC DRUG RESPONSE BIOMARKERS” (Miltenyi Biotech GmbH, priority 2014, published 2015)

Legend:
[1] = test system: primary tumor cell line derived from model HBCx-17 (suspension and adherent cells); experiment: IC50 values of commonly used chemotherapeutic drugs on suspension versus adherent subpopulations of a primary tumor cell line; format: cell-based, human; conditions: HBCx-17 derived primary tumor cell line; n=3; suspension vs adherent subpopulation
[2] = test system: epithelial breast cell line MCF10A; experiment: EMT induction in epithelial breast cell line by TGFβ1; format: cell-based, human
Procedure: The expression of SSEA4 was evaluated upon EMT induction. To induce a mesenchymal transition, the epithelial breast cell line MCF10A was treated with TGFβ1 at concentrations of 10 and 20 ng/ml. […] F-actin was stained by Phalloidin to visualize the cytoskeleton architecture. […] The fraction of SSEA4 positive cells was increased upon EMT induction (FIG. 8E) verifying that expression of SSEA4 indicates a more mesenchymal phenotype.
The results of the mRNA and the miRNA analysis strongly indicate that the expression of SSEA4 correlates with a more mesenchymal phenotype. […] To induce a mesenchymal transition, the epithelial breast cell line MCF10A was treated with TGFβ1 at concentrations of 10 and 20 ng/ml. […] Previously known key EMT markers like EpCAM, E-cadherin, Vimentin, and Fibronectin were regulated as expected, proving the efficiency of EMT induction using our method (FIG. 8 and data not shown). […] Strikingly, the fraction of SSEA4 positive cells was increased upon EMT induction verifying the correlation between SSEA4 expression and a more mesenchymal phenotype (FIG. 8).

| IC50 values of suspension cells (higher SSEA4 expression) compared to adherent cells [1] | Compound | also measured |
| --- | --- | --- |
| decreased IC50 values | CC[C@@]1(O)C(=O)OCc2c1cc1n(c2=O)Cc2cc3c(CN(C)C)c(O)ccc3nc2-1 [Topotecan] |  |
| higher IC50 values | COc1cccc2c1C(=O)c1c(O)c3c(c(O)c1C2=O)C[C@@](O)(C(=O)CO)C[C@@H]3O[C@H]1C[C@H](N)[C@H](O)[C@H](C)O1 [doxorubicin] |  |
| decreased IC50 values | CCc1c2c(nc3ccc(OC(=O)N4CCC(N5CCCCC5)CC4)cc13)-c1cc3c(c(=O)n1C2)COC(=O)[C@]3(O)CC [Irinotecan] |  |

The next lines start with the compound.

| Compound | IC50 values of suspension cells (higher SSEA4 expression) compared to adherent cells [1] | also measured |
| --- | --- | --- |
| TGFβ1: TGFβ1 used to induce a mesenchymal transition (EMT) in MCF10A cells |  | cell morphology upon treatment ([2]; TGFβ1 10 and 20 ng/ml): almost all cells changed their morphology from a compacted colony type to an elongated fibroblastic shape; epithelial marker E-cadherin expression upon treatment ([2]; TGFβ1 10 and 20 ng/ml): downregulated; epithelial marker EpCAM expression upon treatment ([2]; TGFβ1 10 and 20 ng/ml): downregulated; fraction of SSEA4 positive cells upon EMT induction ([2]; TGFβ1 10 and 20 ng/ml): increased; mesenchymal marker Fibronectin expression upon treatment ([2]; TGFβ1 10 and 20 ng/ml): upregulated; invasive potential of treated cells ([2]; TGFβ1, data not shown): strongly increased |
| O=c1[nH]cc(F)c(=O)[nH]1 [5-Fluorouracil] | higher IC50 values |  |
| CC(=O)O[C@@]12CO[C@@H]1C[C@H](O)[C@@]1(C)C(=O)[C@H](O)C3=C(C)[C@@H](OC(=O)[C@H](O)[C@@H](NC(=O)OC(C)(C)C)c4ccccc4)C[C@@](O)([C@@H](OC(=O)c4ccccc4)[C@H]21)C3(C)C [Docetaxel] | higher IC50 values |  |
| COc1cc([C@@H]2c3cc4c(cc3[C@@H](O[C@@H]3O[C@@H]5CO[C@@H](C)O[C@H]5[C@H](O)[C@H]3O)[C@H]3COC(=O)[C@H]23)OCO4)cc(OC)c1O [Etoposide] | no difference |  |
